Results taken from the NIST ThermoML archive (doi:10.1016/j.jct.2017.11.007).

Assay: mn = molality of the nth substance listed, in mol/kg
Conditions: 74.66 kPa, Liquid; for speed of sound: Frequency=3 MHz, Single path-length method; for mass density: Vibrating tube method

Cc1ccnc([N-]S(=O)(=O)c2ccc(N)cc2)n1.[Na+] + O
Conditions	mass density [kg/m3]	speed of sound [m/s]
278.15 K, m1 = 0.005	1000.56	1428.1
278.15 K, m1 = 0.008	1000.91	1428.7
278.15 K, m1 = 0.01	1001.15	1429.2
278.15 K, m1 = 0.01486	1001.72	1430.2
278.15 K, m1 = 0.02002	1002.33	1431
278.15 K, m1 = 0.025	1002.91	1432.2
278.15 K, m1 = 0.03001	1003.5	1433.4
278.15 K, m1 = 0.035	1004.08	1434.2
278.15 K, m1 = 0.03931	1004.59	1435.5
278.15 K, m1 = 0.045	1005.25	1436.4
278.15 K, m1 = 0.05	1005.83	1437.5
278.15 K, m1 = 0.05502	1006.42	1438.5
278.15 K, m1 = 0.05998	1007	1439.4
283.15 K, m1 = 0.005	1000.28	1448.9
283.15 K, m1 = 0.008	1000.63	1449.4
283.15 K, m1 = 0.01	1000.87	1449.8
283.15 K, m1 = 0.01486	1001.42	1450.8
283.15 K, m1 = 0.02002	1002.02	1451.6
283.15 K, m1 = 0.025	1002.6	1452.7
283.15 K, m1 = 0.03001	1003.18	1453.7
283.15 K, m1 = 0.035	1003.75	1454.6
283.15 K, m1 = 0.04002	1004.33	1455.6
283.15 K, m1 = 0.045	1004.9	1456.7
283.15 K, m1 = 0.04968	1005.43	1457.4
283.15 K, m1 = 0.05502	1006.05	1458.5
283.15 K, m1 = 0.05998	1006.62	1459.4
288.15 K, m1 = 0.005	999.679	1467.5
288.15 K, m1 = 0.008	1000.02	1467.8
288.15 K, m1 = 0.01	1000.25	1468.2
288.15 K, m1 = 0.01486	1000.8	1469.3
288.15 K, m1 = 0.02002	1001.39	1469.9
288.15 K, m1 = 0.025	1001.96	1470.9
288.15 K, m1 = 0.03001	1002.53	1471.8
288.15 K, m1 = 0.035	1003.09	1472.7
288.15 K, m1 = 0.04002	1003.66	1473.7
288.15 K, m1 = 0.04499	1004.23	1474.6
288.15 K, m1 = 0.05	1004.8	1475.4
288.15 K, m1 = 0.05501	1005.37	1476.5
288.15 K, m1 = 0.05998	1005.94	1477.2
293.15 K, m1 = 0.005	998.778	1483.7
293.15 K, m1 = 0.008	999.118	1484
293.15 K, m1 = 0.01	999.342	1484.4
293.15 K, m1 = 0.01486	999.886	1485.3
293.15 K, m1 = 0.02002	1000.47	1486.1
293.15 K, m1 = 0.025	1001.03	1487
293.15 K, m1 = 0.03001	1001.59	1487.8
293.15 K, m1 = 0.035	1002.15	1488.6
293.15 K, m1 = 0.04002	1002.71	1489.5
293.15 K, m1 = 0.04499	1003.27	1490.3
293.15 K, m1 = 0.05	1003.84	1491.2
293.15 K, m1 = 0.05501	1004.4	1492
293.15 K, m1 = 0.05998	1004.96	1492.8
298.15 K, m1 = 0.005	997.615	1497.8
298.15 K, m1 = 0.008	997.95	1498.2
298.15 K, m1 = 0.01	998.172	1498.5
298.15 K, m1 = 0.01486	998.708	1499.3
298.15 K, m1 = 0.02002	999.286	1500
298.15 K, m1 = 0.025	999.841	1500.9
298.15 K, m1 = 0.03001	1000.39	1501.7
298.15 K, m1 = 0.035	1000.95	1502.5
298.15 K, m1 = 0.04002	1001.5	1503.3
298.15 K, m1 = 0.04499	1002.05	1504.1
298.15 K, m1 = 0.05	1002.61	1504.8
298.15 K, m1 = 0.05501	1003.17	1505.7
298.15 K, m1 = 0.05998	1003.73	1506.5
303.15 K, m1 = 0.005	996.212	1510
303.15 K, m1 = 0.008	996.544	1510.5
303.15 K, m1 = 0.01	996.764	1510.8
303.15 K, m1 = 0.01486	997.296	1511.6
303.15 K, m1 = 0.02002	997.863	1512.3
303.15 K, m1 = 0.025	998.416	1513.1
303.15 K, m1 = 0.03001	998.961	1513.8
303.15 K, m1 = 0.035	999.509	1514.6
303.15 K, m1 = 0.04002	1000.06	1515.3
303.15 K, m1 = 0.04499	1000.61	1516.1
303.15 K, m1 = 0.05	1001.16	1516.8
303.15 K, m1 = 0.05501	1001.71	1517.6
303.15 K, m1 = 0.05998	1002.26	1518.3
308.15 K, m1 = 0.005	994.593	1520.6
308.15 K, m1 = 0.008	994.922	1521.1
308.15 K, m1 = 0.01	995.14	1521.4
308.15 K, m1 = 0.01486	995.663	1522.1
308.15 K, m1 = 0.02002	996.227	1522.8
308.15 K, m1 = 0.025	996.774	1523.5
308.15 K, m1 = 0.03001	997.316	1524.2
308.15 K, m1 = 0.035	997.858	1524.9
308.15 K, m1 = 0.04002	998.402	1525.7
308.15 K, m1 = 0.04499	998.941	1526.3
308.15 K, m1 = 0.05	999.494	1527.1
308.15 K, m1 = 0.05501	1000.03	1527.8
308.15 K, m1 = 0.05998	1000.58	1528.4
